Here are results for 25 molecules from patent US20240228463A1, “SODIUM CHANNEL INHIBITORS AND METHODS OF DESIGNING SAME” (Genentech, Inc., priority 2021, published 2024).

This assay deals with T1, hNaV1.7 (Homo sapiens, UniProt Q15858).
T1 construct: expressed in transfected cells
Put plainly: Patch voltage clamp electrophysiology (EP), Syncropatch 384PE, Nav1.7 in CHO cells.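 Further: Nav1.7 stably expressed from cDNA in CHO cells, holding potential of −50 mV kept for the entire experiment.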 The class given is cell-based. The following applies: holding potential −50 mV, inhibition based on 7.5 min compound incubation.

Structures can show the parent of a compound that is named as a salt. Where two headings read alike, the source gives them in different places.

T1 sequence (Q15858 1-1977 isoform Q15858-3): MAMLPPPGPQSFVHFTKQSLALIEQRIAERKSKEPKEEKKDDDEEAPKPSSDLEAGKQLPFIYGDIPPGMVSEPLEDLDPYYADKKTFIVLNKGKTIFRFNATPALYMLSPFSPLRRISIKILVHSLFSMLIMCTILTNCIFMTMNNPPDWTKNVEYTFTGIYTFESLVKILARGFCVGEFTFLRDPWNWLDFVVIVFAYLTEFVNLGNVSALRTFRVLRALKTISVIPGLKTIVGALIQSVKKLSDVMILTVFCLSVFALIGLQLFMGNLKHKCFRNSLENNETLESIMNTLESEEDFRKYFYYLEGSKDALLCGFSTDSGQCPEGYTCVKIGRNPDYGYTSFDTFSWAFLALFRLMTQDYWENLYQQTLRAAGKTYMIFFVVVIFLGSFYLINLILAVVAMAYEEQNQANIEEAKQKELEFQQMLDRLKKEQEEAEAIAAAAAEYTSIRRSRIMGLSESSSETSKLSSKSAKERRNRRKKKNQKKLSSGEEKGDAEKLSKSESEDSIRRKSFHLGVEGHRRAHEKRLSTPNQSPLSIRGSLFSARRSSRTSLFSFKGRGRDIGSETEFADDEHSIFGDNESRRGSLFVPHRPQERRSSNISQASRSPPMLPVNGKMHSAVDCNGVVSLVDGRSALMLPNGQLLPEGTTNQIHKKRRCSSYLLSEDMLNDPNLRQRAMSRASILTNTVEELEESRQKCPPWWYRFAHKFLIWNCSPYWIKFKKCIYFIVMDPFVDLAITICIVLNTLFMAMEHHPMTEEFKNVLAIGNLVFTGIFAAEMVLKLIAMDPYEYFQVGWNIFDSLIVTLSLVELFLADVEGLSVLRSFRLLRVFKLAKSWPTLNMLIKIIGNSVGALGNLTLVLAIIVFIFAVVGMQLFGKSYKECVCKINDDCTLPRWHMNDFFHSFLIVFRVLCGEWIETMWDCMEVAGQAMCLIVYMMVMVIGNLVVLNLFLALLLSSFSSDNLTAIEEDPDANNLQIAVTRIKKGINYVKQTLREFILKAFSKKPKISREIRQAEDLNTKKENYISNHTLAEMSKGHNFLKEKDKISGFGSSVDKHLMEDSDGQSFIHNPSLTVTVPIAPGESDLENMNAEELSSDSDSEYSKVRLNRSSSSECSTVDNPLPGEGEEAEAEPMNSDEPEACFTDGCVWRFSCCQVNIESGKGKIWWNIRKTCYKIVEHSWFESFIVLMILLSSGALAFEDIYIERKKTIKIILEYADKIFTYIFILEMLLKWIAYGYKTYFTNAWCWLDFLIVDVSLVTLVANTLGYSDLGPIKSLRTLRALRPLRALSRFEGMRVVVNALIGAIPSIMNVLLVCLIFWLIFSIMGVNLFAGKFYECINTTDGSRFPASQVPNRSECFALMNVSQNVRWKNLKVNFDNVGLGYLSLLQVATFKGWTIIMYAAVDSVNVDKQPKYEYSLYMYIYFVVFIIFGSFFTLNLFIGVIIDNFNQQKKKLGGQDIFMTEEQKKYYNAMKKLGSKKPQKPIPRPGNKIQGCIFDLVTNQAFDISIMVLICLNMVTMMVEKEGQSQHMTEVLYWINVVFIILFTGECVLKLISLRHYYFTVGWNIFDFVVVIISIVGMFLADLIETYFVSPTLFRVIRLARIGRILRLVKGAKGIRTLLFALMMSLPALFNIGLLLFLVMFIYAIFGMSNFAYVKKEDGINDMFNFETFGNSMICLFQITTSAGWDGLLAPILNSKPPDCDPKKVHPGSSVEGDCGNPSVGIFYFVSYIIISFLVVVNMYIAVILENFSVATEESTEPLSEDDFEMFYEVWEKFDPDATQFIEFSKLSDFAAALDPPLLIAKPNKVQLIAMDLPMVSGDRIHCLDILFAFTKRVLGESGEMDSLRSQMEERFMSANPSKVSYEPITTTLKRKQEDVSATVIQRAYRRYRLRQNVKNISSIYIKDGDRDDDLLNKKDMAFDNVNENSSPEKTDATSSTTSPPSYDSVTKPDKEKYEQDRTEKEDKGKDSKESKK

As for `C[C@@H]1CCc2ccccc2N1S(=O)(=O)NC(=O)c1cc(Cl)c(OCC2CCCC2)cc1F` (single isomer, unassigned) [Example 18], the IC50 (read-out: hNaV1.7 EP_SP) was 24 nM.

Turning to `O=C(NS(=O)(=O)N1CCCC1)c1cc(Cl)c(OCC2CCCC2)cc1F` [Example 22, 5-chloro-4-(cyclopentylmethoxy)-2-fluoro-N-(pyrrolidin-1-ylsulfonyl)-benzamide], the IC50 (read-out: hNaV1.7 EP_SP) was found to be 9.1 nM.

In turn, `COc1cc(-c2cccc(C(F)(F)F)c2)c(F)cc1N1C(=O)CO[C@@H]2CN(S(=O)(=O)Nc3noc4ccc(C5CC5)cc34)CC[C@H]21` (single isomer, unassigned) [Example 93] had an IC50 (hNaV1.7 EP_SP) of 110 nM.

Regarding `O=C(NS(=O)(=O)c1ccc(OCc2ccc(F)cc2F)cc1)c1cc(Cl)c(OCC2CCCC2)cc1F` [Example 317, 5-chloro-4-(cyclopentylmethoxy)-N-((4-((2,4-difluorobenzyl)oxy)phenyl)sulfonyl)-2-fluorobenzamide], the IC50 (read-out: hNaV1.7 EP_SP) was determined as 250 nM.

As to `O=C(NS(=O)(=O)c1ccc(C(F)(F)F)cc1)c1cc(Cl)c(OCC2CCCC2)cc1F` [Example 283, 5-chloro-4-(cyclopentylmethoxy)-2-fluoro-N-((4-(trifluoromethyl)phenyl)sulfonyl)benzamide], the IC50 (read-out: hNaV1.7 EP_SP) was found to be 620 nM.

Take `C[C@@H]1Cc2ccccc2N(S(=O)(=O)NC(=O)c2cc(Cl)c(OCC3CCCC3)cc2F)C1` (single isomer, unassigned) [Example 17]: the IC50 (read-out: hNaV1.7 EP_SP) was 100 nM.

As to `CN(C)[C@H]1CCCC[C@@H]1Nc1cc(F)c(S(=O)(=O)NC(=O)c2cc(Cl)c(OCC3CCCC3)cc2F)c(F)c1` [Example 206, 5-chloro-4-(cyclopentylmethoxy)-N-((4-(((1S,2S)-2-(dimethylamino)-cyclohexyl)amino)-2,6-difluorophenyl)sulfonyl)-2-fluorobenzamide], the IC50 (read-out: hNaV1.7 EP_SP) stood at 50 nM.

As to `COc1cccc(S(=O)(=O)NC(=O)c2cc(Cl)c(OCC3CCCC3)cc2F)c1` [Example 245, 5-chloro-4-(cyclopentylmethoxy)-2-fluoro-N-((3-methoxyphenyl)sulfonyl)benzamide], where the note is “read-out: hNaV1.7 EP_SP”, the IC50 amounted to 690 nM.

As to `O=C(NS(=O)(=O)c1ccc(OCc2cc(F)cc(F)c2)cc1)c1cc(Cl)c(OCC2CCCC2)cc1F` [Example 307, 5-chloro-4-(cyclopentylmethoxy)-N-((4-((3,5-difluorobenzyl)oxy)phenyl)sulfonyl)-2-fluorobenzamide], under “read-out: hNaV1.7 EP_SP”, the IC50 came to 730 nM.

With `Cc1cc(C)cc(COc2ccc(S(=O)(=O)NC(=O)c3cc(Cl)c(OCC4CCCC4)cc3F)cc2)c1` [Example 303, 5-chloro-4-(cyclopentylmethoxy)-N-((4-((3,5-dimethyl-benzyl)oxy)phenyl)sulfonyl)-2-fluorobenzamide], the IC50 (read-out: hNaV1.7 EP_SP) stood at 260 nM.

As for `CN(C)C1(C)CCCN(c2cc(F)c(S(=O)(=O)NC(=O)c3cc(Cl)c(OCC4CCCC4)cc3F)c(F)c2)C1` (stereo not shown) [Example 76, 5-chloro-4-(cyclopentylmethoxy)-N-((4-(3-(dimethylamino)-3-methylpiperidin-1-yl)-2,6-difluorophenyl)sulfonyl)-2-fluorobenzamide], the IC50 (read-out: hNaV1.7 EP_SP) came out at 32 nM.

For `NC(=O)[C@@H]1Cc2cc(S(=O)(=O)NC(=O)c3cc(Cl)c(OCC4CCCC4)cc3F)ccc2O1` [Example 277, (S)-5-(N-(5-chloro-4-(cyclopentylmethoxy)-2-fluorobenzoyl)sulfamoyl)-2,3-dihydrobenzofuran-2-carboxamide], the IC50 (read-out: hNaV1.7 EP_SP) stood at 590 nM.

For `CC(C)COc1cc(F)c(C(=O)NS(=O)(=O)N2CCC(OC3CN(C)C3)CC2)cc1C1CC1` [Example 237, 5-cyclopropyl-2-fluoro-4-isobutoxy-N-((4-((1-methylazetidin-3-yl)oxy)piperidin-1-yl)sulfonyl)benzamide formic acid], the IC50 (read-out: hNaV1.7 EP_SP) was determined as 50 nM.

For `O=C(NS(=O)(=O)c1ccc(OC(F)(F)F)cc1Cl)c1cc(Cl)c(OCC2CCCC2)cc1F` [Example 293, 5-chloro-N-((2-chloro-4-(trifluoromethoxy)phenyl)sulfonyl)-4-(cyclopentylmethoxy)-2-fluorobenzamide], the IC50 (read-out: hNaV1.7 EP_SP) turned out to be 850 nM.

`O=C(NS(=O)(=O)N1CCC2CCNCC2C1)c1cc(Cl)c(OCC2CCCC2)cc1F` (stereo not shown) [Example 321, 5-chloro-4-(cyclopentylmethoxy)-2-fluoro-N-((octahydro-2,7-naphthyridin-2(1H)-yl)sulfonyl)benzamide]: the IC50 (read-out: hNaV1.7 EP_SP) turned out to be 210 nM.

For the molecule `C[C@H]1Cc2ccccc2N(S(=O)(=O)NC(=O)c2cc(Cl)c(OCC3CCCC3)cc2F)C1` (single isomer, unassigned) [Example 16], the IC50 (read-out: hNaV1.7 EP_SP) came to 240 nM.

Turning to `O=C(NS(=O)(=O)N1CC[C@H](OC2CCNCC2)C1)c1cc(Cl)c(OCC2CCCC2)cc1F` (single isomer, unassigned) [Example 212], under “read-out: hNaV1.7 EP_SP”, the IC50 is 87 nM.

Take `O=C(NS(=O)(=O)N1CC(O[C@@H]2CCCNC2)C1)c1cc(Cl)c(OCC2CCCC2)cc1F` (single isomer, unassigned) [Example 49]: under “read-out: hNaV1.7 EP_SP”, the IC50 was determined as 860 nM.

`CN(C)[C@H]1CCCC[C@@H]1Oc1ccc(S(=O)(=O)Nc2noc3cc(OCC4CCCC4)c(C4CC4)cc23)c(F)c1` [Example 89, N-(6-(cyclopentylmethoxy)-5-cyclopropylbenzo[d]isoxazol-3-yl)-4-(((1S,2S)-2-(dimethylamino)cyclohexyl)oxy)-2-fluorobenzenesulfonamide]: under “read-out: hNaV1.7 EP_SP”, the IC50 was 340 nM.

`Cc1csc(S(=O)(=O)NC(=O)c2cc(Cl)c(OCC3CCCC3)cc2F)c1` [Example 252, 5-chloro-4-(cyclopentylmethoxy)-2-fluoro-N-((4-methylthiophen-2-yl)sulfonyl)benzamide]: where the note is “read-out: hNaV1.7 EP_SP”, the IC50 worked out at 110 nM.

For the molecule `O=C(N[C@@H](C(=O)O)C1CCCCC1)c1cc(Cl)c(OCC2CCCC2)cc1F` [Example 107, (R)-2-(5-chloro-4-(cyclopentylmethoxy)-2-fluorobenzamido)-2-cyclohexyl-acetic acid], the IC50 (read-out: hNaV1.7 EP_SP) is 990 nM.

With `CN(C)[C@H]1CCCC[C@@H]1Nc1ccc(S(=O)(=O)NC(=O)c2ccc(OCC3CCCC3)c(Cl)c2)c(F)c1` [Example 57, 3-chloro-4-(cyclopentylmethoxy)-N-((4-(((1S,2S)-2-(dimethylamino)-cyclohexyl)amino)-2-fluorophenyl)sulfonyl)benzamide formate], the IC50 (read-out: hNaV1.7 EP_SP) was determined as 540 nM.

`COc1cc(-c2cccc(C(F)(F)F)c2)c(F)cc1N1C(=O)CO[C@H]2CN(S(=O)(=O)Nc3noc4ccc(C5CC5)cc34)CC[C@@H]21` (single isomer, unassigned) [Example 94] had an IC50 (hNaV1.7 EP_SP) of 240 nM.

`NC[C@@H]1CN(S(=O)(=O)NC(=O)c2cc(Cl)c(OCC3CCCC3)cc2F)CCO1` (single isomer, unassigned) [Example 24, 2,2,2-trifluoroacetate]: where the note is “read-out: hNaV1.7 EP_SP”, the IC50 was 100 nM.

Consider `O=C(NS(=O)(=O)N1CC[C@@H]2CCC[C@H]21)c1cc(Cl)c(OCC2CCCC2)cc1F` (single isomer, unassigned) [Example 220], for which the IC50 (read-out: hNaV1.7 EP_SP) worked out at 14 nM.
